Laboratory results published in patent US20180353483A1, “PHARMACEUTICAL COMPOSITIONS AND METHODS FOR INDOLEAMINE, 2, 3-DIOXYGENASE INHIBITION AND INDICATIONS THEREFOR” (Incyte Corporation, priority 2015, published 2018).

Legend:
Format in all cases: in vivo
[1] = Preclinical PK, cynomolgus monkeys
[2] = Preclinical PK, beagle dogs
[3] = Preclinical PK, renal excretion after IV dose, mice

SMILES: NS(=O)(=O)NCCNc1nonc1C(=NO)Nc1ccc(F)c(Br)c1 [Compound 1, 4-({2-[(aminosulfonyl)amino]ethyl}amino)-N-(3-bromo-4-fluorophenyl)-N′-hydroxy-1,2,5-oxadiazole-3-carboximidamide]
- systemic clearance in percent hepatic blood flow ([1]; cynomolgus monkey): 31%
- fraction of oral dose absorbed (Fa) ([1]; cynomolgus monkeys, estimated from preclinical PK studies (not shown)): 48%
- renal excretion of unchanged compound ([1]; monkeys): less than 3 % of IV dose
- systemic clearance in percent hepatic blood flow ([2]; beagle dog): 26%
- fraction of oral dose absorbed (Fa) ([2]; beagle dogs, estimated from preclinical PK studies (not shown)): 81%
- renal excretion of unchanged compound ([2]; dogs): less than 3 % of IV dose
- renal excretion of unchanged compound [3]: less than 3 % of IV dose
